The text below walks through data of patent US12234223B2, “Phthalazinone compound, and preparation method therefor and medical use thereof” (SHANGHAI JEMINCARE PHARMACEUTICALS CO., LTD, priority 2020, dated 2025).

One assay addresses T1, Androgen receptor (Homo sapiens, UniProt P10275).
T1 construct: Dmax: a maximum degradation degree of AR in VCaP cells; endogenous in cells; host or cells: VCaP cells
T1 sequence (P10275 1-920): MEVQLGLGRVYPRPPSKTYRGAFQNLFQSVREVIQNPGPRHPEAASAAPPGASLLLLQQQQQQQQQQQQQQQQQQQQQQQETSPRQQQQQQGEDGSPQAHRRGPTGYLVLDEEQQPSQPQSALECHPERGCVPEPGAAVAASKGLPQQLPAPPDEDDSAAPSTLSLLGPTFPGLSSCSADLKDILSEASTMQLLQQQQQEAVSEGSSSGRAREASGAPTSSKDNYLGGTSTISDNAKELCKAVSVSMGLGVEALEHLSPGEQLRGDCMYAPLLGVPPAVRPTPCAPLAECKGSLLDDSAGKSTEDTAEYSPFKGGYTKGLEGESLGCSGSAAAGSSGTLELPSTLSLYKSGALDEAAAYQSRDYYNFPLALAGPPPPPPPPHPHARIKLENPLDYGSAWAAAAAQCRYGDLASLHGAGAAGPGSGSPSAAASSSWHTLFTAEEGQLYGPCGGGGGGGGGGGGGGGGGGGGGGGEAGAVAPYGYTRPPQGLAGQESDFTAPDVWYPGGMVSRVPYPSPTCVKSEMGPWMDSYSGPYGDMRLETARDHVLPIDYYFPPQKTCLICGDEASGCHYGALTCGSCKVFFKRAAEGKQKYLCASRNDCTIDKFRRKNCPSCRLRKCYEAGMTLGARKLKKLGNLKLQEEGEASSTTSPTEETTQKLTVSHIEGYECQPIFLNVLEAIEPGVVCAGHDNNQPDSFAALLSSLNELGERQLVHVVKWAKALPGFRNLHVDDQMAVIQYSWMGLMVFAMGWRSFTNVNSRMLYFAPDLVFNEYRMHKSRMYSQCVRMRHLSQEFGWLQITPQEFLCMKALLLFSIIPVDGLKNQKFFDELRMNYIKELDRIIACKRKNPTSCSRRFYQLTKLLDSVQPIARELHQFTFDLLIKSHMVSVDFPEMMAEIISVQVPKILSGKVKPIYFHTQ
Description: Androgen receptor In-Cell-Western assay (AR degradation in VCaP cells). The class given is cell-based. The note with it: 24 hours treatment; for DC50: concentration for half the maximum degradation degree of AR in VCaP cells; for Dmax: maximum degradation degree of AR in VCaP cells. The procedure:
This assay evaluated compound performance in VCap cells. An intracellular androgen receptor was assayed by In-Cell-Western according to the assay procedure described below.
In a 96-well cell culture plate (Corning 3599) pretreated by poly-D-Lysin, Vcap cells were seeded to a Vcap cell assay medium [phenol red containing DMEM (Gibco Cat. No.: 11995065); fetal bovine serum FBS (Gibco Cat. No.: 10099141C)] at a volume of 100 μL/well and a cell density of 50,000 cells/well. Cells were cultured for at least two days. • 1. First, cells were treated with a compound. The compound was subjected to a gradient dilution by using DMSO and a cell culture medium, so that DMSO contained in the cell culture plate was diluted to 0.5%: a polypropylene plate was used according to the following protocol: • (1) (i) A 200× stock solution plate was prepared in DMSO; (ii) a 10 mM stock solution was diluted at 1:4 (10 μL stock solution+40 μL DMSO=2000 uM) with DMSO to enter row 2; (iii) a 1:4 (10 μL protac+40 μL DMSO) gradient dilution was performed from row 2 to row 9, row 1 was reserved for a 2000 uM reference compound and row 10 was reserved for DMSO. (iv) There were 8 concentrations (the final concentrations on the 200× plate was 2000 uM, 400 uM, 80 uM, etc.) in total. (2) (i) A 3× stock solution was prepared in the medium; (ii) 3 μL of the 200× stock solution was transferred to 197 μL of the medium (by a 12-channel pipette, from row 1 to row 10), i.e. a 3× stock solution plate. (iii) Uniform mixing was performed for the stock solution plate. (3) (i) The medium of Vcap cells was replaced with a fresh medium, with the medium volume of 100 μL. (ii) The uniformly-mixed 3× stock solution was transferred to the cell culture plate (by the 12-channel pipette, 50 μL of the stock solution was transferred from row 1 to row 10). (iii) The cells were cultured for 24 hours. • 2. The expression level of the intracellular androgen receptor after compound treatment was detected, and assay was performed according to the following method. • (1) (i) An equal volume of 8% paraformaldehyde was added to the cell culture plate for cell fixation. A fixative solution in the cell plate was discarded, and the cell plate was washed three times with PBS. (ii) A Triton solution was prepared (the stock solution was diluted at 1:1000). The solution in the cell plate was discarded, and a volume of 200 μL of a Triton diluent was added to each well. (iii) A 2× blocking solution was prepared (a 10× blocking stock solution was diluted at 1:4). The solution in the cell plate was discarded, and a volume of 100 μL of the 2× blocking solution was added to each well. (iv) A primary antibody solution (Androgen receptor Rabbit mAb, Cell Signaling Technology Cat. No.: 5153; 1:1000 dilution) was prepared. The solution in the cell plate was discarded, a volume of 100 μL of a primary antibody diluent was added to each well, and incubation was performed at 4 degrees overnight. (v) The primary antibody solution was discarded, and the cell plate was washed with 1× Wash buffer (Wash buffer in the present application means a washing buffer solution). (vi) A secondary antibody solution (Goat anti Rabbit IgG (H+L) Secondary Antibody, HRP, Thermo Cat. No.: 31460; 1:5000 dilution) was prepared, and a volume of 100 μL of a secondary antibody diluent was added to each well for incubation. (vii) The secondary antibody solution in the cell plate was discarded, and the cell plate was washed with 1× Wash buffer. (viii) A TMB chromogenic solution (BD Cat. No.: 550534) was prepared, and a volume of 100 μL of the chromogenic solution was added to each well. (ix) A volume of 50 μL of a stop solution (BD Cat. No.: 550534) was added to each well. (x) Absorption values at OD 450 nm and 570 nm were read by EnVision. (2) (i) Normalized analysis was performed for the number of cells in each well. The solution in the cell plate was discarded, and the cell plate was washed three times with wash buffer. […]

A further assay relates to VCaP cells. Description: Inhibitory effect on VCaP cell proliferation (Cell Titer Glo). The class given is cell-based. The note with it: Homo sapiens, 144 h; for IC50: VCaP cells, 5% FBS and 0.1 nM R1881, 6 days; for Emax: maximum degree of VCaP cell proliferation inhibition, 6 days. As to the method: A tumor cell line Vcap (ATCC Cat. No. CRL-2876) was respectively cultured with DMEM (Gibco Cat. No. 11965-092) medium containing 10% FBS (Gibco Cat. No. 10099-141C). During testing, Vcap cells were replaced with a DMEM culture fluid containing 5% FBS and 0.1 nM R1881 (Sigma Cat. No. R0908). The assay method was as follows:
Vcap cells were seeded to a 384-well plate (Perkin Elmer Cat. No. 6007460) at a cell density of 1200 cells/well and a volume of 20 μL/well; after the cells were incubated overnight in a carbon dioxide incubator (Thermo), the prepared compound solutions with different concentrations were added at a volume of 5 μL/well; meanwhile, a corresponding solvent was provided as a control; after the cells were continuously incubated in the incubator for 6 days, the cell plate and the contents thereof were equilibrated to room temperature; 25 μL of a Cell Titer Glor (Promega Cat. No. G7573) reagent was added to each well; after vibration and uniform mixing, incubation in the dark was performed for 10-30 minutes, and a signal value was detected with Envision microplate reader (PerkinElmer).
A percentage inhibition rate of compound-treated wells was calculated through solvent control wells on the plate, GraphPad prism was used to fit the percentage inhibition rate data corresponding to different concentrations, and IC50 value was calculated by a 4-parameter nonlinear logistic formula.
Emax: a maximum degree of VCaP cell proliferation inhibition. IC50: a compound concentration required to achieve half the maximum degree of VCaP cell proliferation inhibition.

On to `CC1(C)[C@H](NC(=O)c2ccc(N3CCC(CN4CCN(c5ccc6c(=O)n(C7CCC(=O)NC7=O)ncc6c5)CC4)CC3)c(F)c2)C(C)(C)[C@H]1Oc1ccc(C#N)c(Cl)c1` (stereo partly shown) [Compound 5], for which, on Androgen receptor, it took 0.0084 µM to reach half-maximal degradation (DC50) and the Dmax was 105%. Also, in the assay with VCaP cells, the IC50 was 0.037 µM and the Emax came to 62%.
Consider `CC1(C)[C@H](NC(=O)c2cnc(N3CCC(CCN4CCN(c5ccc6c(=O)n(C7CCC(=O)NC7=O)ncc6c5)CC4)CC3)nc2)C(C)(C)[C@H]1Oc1ccc(C#N)c(Cl)c1` (stereo partly shown) [Compound 24], for which, on Androgen receptor, the DC50 is 0.0068 µM and the Dmax was 106%. In the assay on VCaP cells, this compound registered an IC50 of 0.018 µM and an Emax of 53%.
As to `CC1(C)[C@H](NC(=O)c2cnc(N3CCCC(CN4CCN(c5ccc6c(=O)n(C7CCC(=O)NC7=O)ncc6c5)CC4)CC3)nc2)C(C)(C)[C@H]1Oc1ccc(C#N)c(Cl)c1` (stereo partly shown) [Compound 25], on Androgen receptor, the DC50 amounted to 0.01 µM and the Dmax is 116%. In the assay on VCaP cells, this compound displayed an IC50 of 0.027 µM and an Emax of 62%.
The corresponding values for `CC1(C)[C@H](NC(=O)c2cnc(N3CCC(CCN4CCN(c5ccc6c(=O)n(C7CCC(=O)NC7=O)ncc6c5)CC4)C3)nc2)C(C)(C)[C@H]1Oc1ccc(C#N)c(Cl)c1` (stereo partly shown) [Compound 23] are 0.0069 µM, 98%, 0.02 µM and 56%.

A word on the DC50: it is the midpoint of the concentration-degradation curve. As a reminder, the Dmax is the greatest extent of degradation seen. Usually IC50 stands for the midpoint of a concentration-inhibition curve. High values mean weaker potency in that assay, low ones greater potency in that assay.
